From PMC3734177, “Design, Synthesis, Evaluation and Thermodynamics of 1-Substituted Pyridylimidazo[1,5-a]Pyridine Derivatives as Cysteine Protease Inhibitors” (PLoS ONE, 2013)
Converted amounts (≈) assume the structure as drawn. Read-outs that look alike come from different tables or passages of the source.

Tests used:
Format in all cases: cell-based
[1] = system: Serratia morganii (ATCC- 31665); experiment: MIC, micro dilution method; settings: ATCC31665
Procedure: (§1) The disk diffusion method was used for the preliminary antibacterial evaluation of 1-pyridylimidazo[1,5-a]pyridine derivatives. The MIC50 of these derivatives, showing inhibition in the preliminary tests, were further determined by the microtitre plate technique using micro dilution method. In brief, the bacterial strains (S. aureus, P. vulgaris, Group D Streptococci, Bacillus sp., E. coli, P. aeruginosa and S. morganii)) were grown and diluted to 2×10^5 colony-forming units (CFU)/ml in sodium phosphate buffer (SPB) containing 0.03% Luria–Bertani (LB) broth. The synthesized derivatives were dissolved in DMSO and their serial dilution was performed in 50 µL of LB medium in 96-well microtitre plate to achieve the required concentrations (0.1–10 µg/ml) with bacterial inoculums (5×10^4 CFU per well). DMSO was taken as negative control and Ceftriaxone and clotrimazole were taken as positive control. After incubation at 37°C overnight, the MICs were taken as the lowest inhibitor concentration at which the bacterial growth was inhibited. The average of three values was calculated and that was the MIC for the test material and bacterial strain.
(§2) For the agar plate count method, 25 µL aliquots of bacteria at 1×10^5 CFU/ml in SPB containing 0.03% LB broth were incubated with 25 µL of diluted compounds for 2 h at 37°C. The mixtures of bacteria and compounds were serially diluted 10-fold with SPB and plated on LB plates that were incubated at 37°C overnight. Bacterial colonies were enumerated the following day.

[2] = system: Group D Streptococci (ATCC-12959); experiment: MIC, micro dilution method
Procedure: as §1, §2

[3] = system: Staphylococcus aureus (ATCC-25923); experiment: MBC, sub cultivation from MIC plate; settings: ATCC25923, S. aureus
Procedure: (§3) After having determined the MICs, bacterial strains from the wells of the microtitre plate with no visible bacterial growth were removed for serial sub cultivation of 2 µl into another new microtitre plate containing 100 µl of broth per well and further incubated for 24 h. The lowest concentration with no visible growth was defined as MBC [28], indicating 99.5% killing of the original inoculum. The absorbance of each well was measured at a wavelength of 620 nm by Microplate Manager 4.0 (Bio-Rad laboratories) and compared with a blank. Solvent (DMSO) was used as a negative control. Three replicates were done for each compound and experiment was repeated two times.

[4] = system: Proteus vulgaris (ATCC-29905); experiment: MBC, sub cultivation from MIC plate; settings: ATCC29905, P. vulgaris
Procedure: as §3

[5] = system: Serratia morganii (ATCC- 31665); experiment: MBC, sub cultivation from MIC plate
Procedure: as §3

[6] = system: Bacillus spp. (ATCC-14593); experiment: MBC, sub cultivation from MIC plate; settings: ATCC14593, Bacillus sp.
Procedure: as §3

[7] = system: Pseudomonas aeruginosa (ATCC-27853); experiment: MBC, sub cultivation from MIC plate
Procedure: as §3

[8] = system: Escherichia coli (ATCC-25922); experiment: MBC, sub cultivation from MIC plate; settings: ATCC25922, E. coli
Procedure: as §3

[9] = system: Group D Streptococci (ATCC-12959); experiment: MBC, sub cultivation from MIC plate
Procedure: as §3

[10] = system: Staphylococcus aureus (ATCC-25923); experiment: MIC, micro dilution method; settings: ATCC25923, S. aureus
Procedure: as §1, with “strain. […]” for “strain.”

[11] = system: Proteus vulgaris (ATCC-29905); experiment: MIC, micro dilution method; settings: ATCC29905, P. vulgaris
Procedure: as §1, with “strain. […]” for “strain.”

[12] = system: Bacillus spp. (ATCC-14593); experiment: MIC, micro dilution method; settings: ATCC14593; Bacillus sp.
Procedure: as §1, with “strain. […]” for “strain.”

[13] = system: Pseudomonas aeruginosa (ATCC-27853); experiment: MIC, micro dilution method; settings: ATCC27853
Procedure: as §1, with “strain. […]” for “strain.”

[14] = system: Escherichia coli (ATCC-25922); experiment: MIC, micro dilution method; settings: ATCC25922, E. coli
Procedure: as §1, with “strain. […]” for “strain.”

[15] = system: Bacillus spp. (ATCC-14593); experiment: MIC, micro dilution method; settings: ATCC14593; Bacillus sp.; remark: listed apart in the source

| SMILES | MBC ([3]; read-out: MBC50) [µg/mL] | MBC ([3]; read-out: MBC90) [µg/mL] | MBC ([4]; read-out: MBC50) [µg/mL] | MBC ([4]; read-out: MBC90) [µg/mL] | MBC ([7]; ATCC27853, read-out: MBC50) [µg/mL] | MBC ([7]; ATCC27853, read-out: MBC90) [µg/mL] | MBC ([8]; read-out: MBC50) [µg/mL] | MBC ([8]; read-out: MBC90) [µg/mL] | MIC50 [10] [µg/mL] | MIC90 [10] [µg/mL] | MIC50 [11] [µg/mL] | MIC90 [11] [µg/mL] | MIC50 [13] [µg/mL] | MIC90 [13] [µg/mL] | MIC50 [14] [µg/mL] | MIC90 [14] [µg/mL] | also measured |
| --- | --- | --- | --- | --- | --- | --- | --- | --- | --- | --- | --- | --- | --- | --- | --- | --- | --- |
| CO/N=C(\C(=O)N[C@@H]1C(=O)N2C(C(=O)O)=C(CSc3nc(=O)c(=O)[nH]n3C)CS[C@H]12)c1csc(N)n1 [Ceftriaxone, reference compound] | 7 (≈ 12.6 µM) | 10 (≈ 18 µM) | 0.9 (≈ 1.62 µM) | 1.2 (≈ 2.16 µM) | 3.2 (≈ 5.77 µM) | 5.5 (≈ 9.92 µM) | 0.14 (≈ 0.252 µM) | 0.24 (≈ 0.433 µM) | 3.8 (≈ 6.85 µM) | 6 (≈ 10.8 µM) | 0.4 (≈ 0.721 µM) | 0.8 (≈ 1.44 µM) | 1.5 (≈ 2.7 µM) | 3 (≈ 5.41 µM) | 0.07 (≈ 0.126 µM) | 0.12 (≈ 0.216 µM) | MIC50 [1]: 0.9 µg/mL (≈ 1.62 µM); MIC90 [1]: 1.5 µg/mL (≈ 2.7 µM); MIC50 [2]: 0.08 µg/mL (≈ 0.144 µM); MIC90 [2]: 1.4 µg/mL (≈ 2.52 µM); MBC ([5]; ATCC31665, read-out: MBC50): 1.7 µg/mL (≈ 3.07 µM); MBC ([5]; ATCC31665, read-out: MBC90): 3.3 µg/mL (≈ 5.95 µM); MBC ([6]; read-out: MBC50): 1.7 µg/mL (≈ 3.07 µM); MBC ([6]; read-out: MBC90): 3.1 µg/mL (≈ 5.59 µM); MBC ([9]; read-out: MBC50): 1.5 µg/mL (≈ 2.7 µM); MBC ([9]; read-out: MBC90): 1.9 µg/mL (≈ 3.43 µM); MIC50 [12]: 0.8 µg/mL (≈ 1.44 µM); MIC90 [15]: 1.6 µg/mL (≈ 2.89 µM) |
| Clc1ccccc1C(c1ccccc1)(c1ccccc1)n1ccnc1 [Clotrimazole, 1-[(2-chlorophenyl)(diphenyl)methyl]-1H-imidazole, reference compound] | 0.0014 (≈ 0.00406 µM) | 0.003 (≈ 0.0087 µM) | 0.0014 (≈ 0.00406 µM) | 0.0032 (≈ 0.00928 µM) | 68 (≈ 197 µM) | 134 (≈ 389 µM) | 75 (≈ 217 µM) | 144 (≈ 418 µM) | 0.0009 (≈ 0.00261 µM) | 0.0016 (≈ 0.00464 µM) | 0.00084 (≈ 0.00244 µM) | 0.00145 (≈ 0.0042 µM) | 40 (≈ 116 µM) | 75 (≈ 217 µM) | 45 (≈ 130 µM) | 85 (≈ 246 µM) | – |
